By IC50 is commonly meant the concentration at which inhibition is half-maximal.

Each structure is given as a SMILES string.

T1 sequence (Q96P20 whole entry): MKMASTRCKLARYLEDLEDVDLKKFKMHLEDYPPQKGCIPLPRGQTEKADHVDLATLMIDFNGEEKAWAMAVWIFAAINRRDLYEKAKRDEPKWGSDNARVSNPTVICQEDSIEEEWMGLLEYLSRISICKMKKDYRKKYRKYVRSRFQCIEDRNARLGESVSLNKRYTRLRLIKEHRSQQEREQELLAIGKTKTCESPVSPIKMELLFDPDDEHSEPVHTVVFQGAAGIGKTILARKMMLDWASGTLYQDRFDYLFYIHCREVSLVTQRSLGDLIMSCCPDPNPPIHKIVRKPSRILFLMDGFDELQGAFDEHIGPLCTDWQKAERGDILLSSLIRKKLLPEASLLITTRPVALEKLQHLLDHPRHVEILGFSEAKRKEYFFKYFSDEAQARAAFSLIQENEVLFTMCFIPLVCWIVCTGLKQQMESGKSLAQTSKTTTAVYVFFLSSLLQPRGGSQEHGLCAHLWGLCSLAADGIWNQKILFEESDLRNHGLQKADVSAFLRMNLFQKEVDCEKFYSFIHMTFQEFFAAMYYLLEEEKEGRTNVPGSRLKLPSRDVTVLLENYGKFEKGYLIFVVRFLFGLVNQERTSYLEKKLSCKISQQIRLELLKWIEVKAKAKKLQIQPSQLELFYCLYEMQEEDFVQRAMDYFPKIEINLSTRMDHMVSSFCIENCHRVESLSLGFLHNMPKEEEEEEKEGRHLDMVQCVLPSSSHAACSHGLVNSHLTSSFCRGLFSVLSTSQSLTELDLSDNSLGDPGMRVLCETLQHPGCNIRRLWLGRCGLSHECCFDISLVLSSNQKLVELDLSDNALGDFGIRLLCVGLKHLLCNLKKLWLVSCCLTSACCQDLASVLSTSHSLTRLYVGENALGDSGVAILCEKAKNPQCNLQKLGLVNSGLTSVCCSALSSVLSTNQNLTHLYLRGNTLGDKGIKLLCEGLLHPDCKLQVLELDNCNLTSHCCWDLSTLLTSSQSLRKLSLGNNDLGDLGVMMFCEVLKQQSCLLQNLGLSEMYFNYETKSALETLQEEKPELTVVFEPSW

The assay concerns the target T1, NLRP3 (Homo sapiens, UniProt Q96P20).
T1 construct: Seed THP-1 cells (5.56*10^5 cells/mL) containing 1.0 ug/mL LPS; endogenous in cells; host or cells: THP-1 cells
Description: THP-1 cell assay (LPS priming, nigericin), IL1β release by HTRF; called pyroptosis assay, THP IC50. The note with it: NLRP3 inhibitory activity; THP-1 cells, 1.0 ug/mL LPS, compound 3 hrs, nigericin 5 uM 1 hr, IL1β in supernatant. The format is cell-based. In a few lines: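 THP-1 cells were primed with 1.0 ug/mL LPS in serum-free RPMI 1640 alongside compound (10 doses from 5 uM, 1:3) for 3 h at 37° C. Nigericin (final 5 uM) was then added for 1 h. Supernatant IL1β was quantified by HTRF against a standard curve, with IC50 from a four-parameter fit.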
A general note: Time-resolved FRET reads energy transfer from a long-lived donor to a nearby acceptor.
As for `Cc1cc2c(c(NC(=O)NS(=O)(=O)c3ccn(C(C)C4CC4)n3)c1-c1ccn3nccc3c1)CCC2` (stereo not shown) [Example 82, 1-(1-cyclopropylethyl)-N-((6-methyl-5-(pyrazolo[1,5-a]pyridin-5-yl)-2,3-dihydro-1H-inden-4-yl)carbamoyl)-1H-pyrazole-3-sulfonamide], the 50% inhibitory concentration (IC50) fell in the range of 0.3 to 1 µM.

On to `Cc1cc2c(c(NC(=O)NS(=O)(=O)c3ccn(C4CC4)n3)c1-c1ccn3nccc3c1)OCC2` [Example 83, 1-cyclopropyl-N-((5-methyl-6-(pyrazolo[1,5-a]pyridin-5-yl)-2,3-dihydrobenzofuran-7-yl)carbamoyl)-1H-pyrazole-3-sulfonamide], for which the half-maximal inhibitory concentration (IC50) was in the range of 0.03 to 0.3 µM.

`Cc1cc2c(c(NC(=O)NS(=O)(=O)c3cnn(CC4CC4)c3)c1-c1ccc3cncn3c1)CCC2` [Example 20, 1-(cyclopropylmethyl)-N-((5-(imidazo[1,5-a]pyridin-6-yl)-6-methyl-2,3-dihydro-1H-inden-4-yl)carbamoyl)-1H-pyrazole-4-sulfonamide] registered an IC50 of 0.03 to 0.3 µM.

On to `Cc1cc2c(c(NC(=O)NS(=O)(=O)c3cc(C(C)(C)O)cs3)c1-c1ccn3nccc3c1)CCC2` [Example 70, 4-(2-hydroxypropan-2-yl)-N-((6-methyl-5-(pyrazolo[1,5-a]pyridin-5-yl)-2,3-dihydro-1H-inden-4-yl)carbamoyl)thiophene-2-sulfonamide], for which the IC50 is at most 0.03 µM.

The values above are taken from US20240400561A1, “NOVEL SUBSTITUTED SULFONYLUREA COMPOUNDS AS INHIBITORS OF INTERLEUKIN-1 ACTIVITY” (Viva Star Biosciences (Suzhou) Co., Ltd., priority 2021, published 2024).
